Source: article PMC8945686, “Anticancer Effects with Molecular Docking Confirmation of Newly Synthesized Isatin Sulfonamide Molecular Hybrid Derivatives against Hepatic Cancer Cell Lines” (Biomedicines, 2022)
Marks after values point to notes of the source that are not given here.

Assays:
HepG2 cells [1] = experiment: MTT cytotoxicity assay on HepG2 cells; type: cell-based; settings: Homo sapiens; for cytotoxicity at 100 ppm: 48 h, 100 p.p.m (μg/mL), read-out: % Death Rate at 100 p.p.m (μg/mL) HepG2; for IC50: HepG2, 48 h
Experimental: (§1) MTT-based cell viability assay was carried out to evaluate the antiproliferation potential of the target compounds on HCC cell lines (HepG2 and Huh7). The half maximal inhibitory concentration (IC50) values were calculated against DMSO non-treated HepG2 cells (negative control) and Dox-treated HepG2 cells (positive control). The assay was conducted using 3-(4, 5-di-MethylThiazol-2-yl)-2,5-diphenyl Tetrazolium bromide (MTT) to test cell viability, according to the method described by Mosmann with minor changes. The yellow MTT is reduced in the viable cells to purple formazan. The insoluble formazan is solubilized by DMSO to colored solution measured spectrophotometrically. Briefly, cells were seeded in a 96-well plate at density of 1 × 10^4 cells/well for 24 h in 5% CO2 incubator at 37 °C to allow their adherence. […] After incubation, 20 μL of a 5 mg/mL MTT solution were mixed with the contents of each well, and the plate was incubated for another 4 h. Then, the medium was suctioned, and the wells were washed with PBS. After 2 h of drying, 200 μL of DMSO was added to each well. The plate was set on a shaker to dissolve the formazan crystals. Then, the absorbance was measured spectrophotometrically at 570 nm with a reference wavelength of 630 nm using ELX800 UV universal microplate reader (BioTek Instruments Inc., VT, Santa Clara, CA, USA).
(§2) All experiment conditions were tested in three replicates. The % cell viability was calculated from the following equation: (mean absorbance of treated sample/mean absorbance of negative control sample) × 100. The % death rate = 100 -% cell viability, and the inhibitory concentration of 50% (IC50) was measured from the exponential curve of viability against concentration (dose–response curve).

[2] = In vitro safety/cell viability MTT assay on normal RPE1 cells; type: cell-based, human; settings: human, RPE1 cells (noncancerous), normal RPE1 cells, MTT
Huh7 cells = experiment: MTT cytotoxicity assay on Huh7 cells; type: cell-based, human; settings: for IC50: Homo sapiens, Huh-7, 48 h
Experimental: as §1, §2

mice = experiment: In vivo acute (14-day) oral toxicity study; settings: for S.ALT / S.AST / S.Creatinine / S.D.Bilirubin / S.T.Bilirubin / S.Urea: 14 days after single dose, compounds 250 mg/kg oral, doxorubicin 15 mg/kg I.P; for Survival over the treatment period (14 days) / Physical or abnormal changes (body weight, skin, fur, eyes, behavior, overall appearance): single acute oral dose of 250 mg/kg; for Physical or abnormal changes (body weight, skin, fur, eyes, behavior, overall appearance): 14 days
Description: GPower 3.0.10 software was used to estimate the sample size needed for the experiment and the number of mice per group but, according to the Organization for Economic Cooperation and Development (OECD) Test Guidelines No. 407 (OECD, 2008 and updated 2017) and under the International Academy of Science’s Guide for the Care and Use of Laboratory Animals, as well as the ARRIVE guidelines, to use the least number of mice per group for the acute single dose oral toxicity test.
Animals were divided randomly into nine groups (5 animals per group). Before the experiment, the body weight (BW) of all mice was recorded. All mice were made to fast for 24 h and treated once (day zero) then carefully monitored for 14 days.
Normal control group: mice received saline orally once;
Negative control group: mice received vehicle (DMSO) orally once;
Positive control group: mice were injected with Dox (15 mg/kg BW, i.p.) once.
Isatin-sulfonamide-derivative-compound-treated groups (2a, 3a, 3d and 4b, 4c and 4d) of mice received 250 mg/kg BW of each orally once.
The animals’ BWs were recorded at the end of the 14 days of observation. Blood samples were collected from the retro-orbital plexus and allowed to clot. Sera were prepared by centrifugation at 4000 rpm for 15 min and then kept frozen at − 80 °C for liver and kidney function tests (LFTs and KFTs). Thereafter, mice were deprived of food overnight, euthanized, and sacrificed by cervical dislocation. Liver and kidney tissues were collected, washed with ice-cold saline, and weighed. Excised weighed livers and kidneys were fixed in a suitable buffer for histological examination.
Liver and kidney tissues were fixed in 10% neutral buffered formaldehyde overnight and then embedded in paraffin, […] in serial grades of alcohols, cleared in xylene, and were subjected to […], where 4 μm thick tissue sections were cut by rotatory microtome. Tissue sections were stained with hematoxylin and eosin (H and E) for histological examination using full HD light microscopic imaging system (Leica Microsystems GmbH, Wetzlar, Germany). Standard procedures for sample fixation and staining were done as previously described.

HepG2 cells [3] = experiment: Annexin V/FITC-PI apoptosis assay; type: cell-based, human; settings: HepG2, IC50 of the compound, 24 h (method says 48 h)
Experimental: Annexin V/PI double staining kit (eBiosciencesDx) was used to detect apoptotic activity of the selected isatin sulfonamide derivatives. The Annexin V corresponding signal provides a very sensitive marker for cellular apoptosis, while PI was used to detect necrotic or late apoptotic cells, identified by the loss of plasma integrity and loss of nuclear membranes.
Briefly, 1 × 10^5 cells/mL of HepG2 cells were seeded into a 6-well plate and incubated at 37 °C, 5% CO2, overnight. […] After time elapsed, trypsinization of cells was carried out. Washing was done by PBS once, followed by fixation using 70% ethanol. Fixed cells were stored at 4 °C for 2 h, then centrifuged at 500× g for 5 min. Again, cells were washed with PBS prior to staining. An amount of 200 μL of the staining solution (annexin V- fluorescein 5-isothiocyanate (FITC) and PI in binding buffer (10 mM HEPES, 140 mM NaCl, and 2.5 mM CaCl2 at pH 7.4)) were added to the cell suspension and incubated at 37 °C for 20 to 30 min in dark and analyzed with a fluorescence-activated cell sorter (FACS) (BD FACSCalibur, BD Biosciences, California, USA). Data were analyzed using ModFit LT v2.0 (Verity Software House, Topsham, Maine, USA).
These plots were divided into four regions corresponding to: • (1) Viable cells, which are negative to both probes (PI/FITC −/−), • (2) Apoptotic cells, which are PI negative and Annexin positive (PI/FITC −/+), • (3) Late apoptotic cells, which are both PI and Annexin positive (PI/FITC +/+), • (4) Necrotic cells, which are PI positive and Annexin negative (PI/FITC+/−).

Compound | cytotoxicity at 100 ppm (HepG2 cells [1]) | IC50 (HepG2 cells [1]) | CC50 at 48 h [2] | viability at 48 h, 100 p.p.m (μg/mL) [2] | % Death Rate at 100 p.p.m (μg/mL) Huh7 (Huh7 cells; 48 h, 100 p.p.m (μg/mL)) | IC50 (Huh7 cells) | S.ALT (mice) | S.AST (mice) | S.Creatinine (mice) | S.D.Bilirubin (mice) | S.T.Bilirubin (mice) | S.Urea (mice) | Survival over the treatment period (14 days) (mice) | Physical or abnormal changes (body weight, skin, fur, eyes, behavior, overall appearance) (mice) | %Cell Death Late Apoptosis (HepG2 cells [3])
CCOC(=O)/C(C#N)=C1\C(=O)Nc2ccc(S(=O)(=O)N3CCCCC3)cc21 [Compound 2a] | 81.5% | 54.6 ± 2 µM | 40.3 ± 1.61 µM | 4.4% | 100 * % | 40 ± 3.8 µM | 28.42 ± 0.27 ^^ U/L | 37.11 ± 0.35 ^^ U/L | 0.59 ± 0.04 ^^ mg/dL | 0.16 ± 0.003 ^^ mg/dL | 0.65 ± 0.018 ^^ mg/dL | 52.24 ± 0.65 ^^ mg/dL | survived | No physical or abnormal changes were observed | 
N#C/C(C(N)=O)=C1/C(=O)Nc2ccc(S(=O)(=O)N3CCCCC3)cc21 [Compound 2b] | 10.2% | > 100 µM |  |  |  | > 100 µM |  |  |  |  |  |  |  |  | 
Nc1cccc(C(=O)CC2(O)C(=O)Nc3ccc(S(=O)(=O)N4CCCCC4)cc32)c1 (centres unmarked) [Compound 3b] | 1.2% | > 100 µM |  |  |  | > 100 µM |  |  |  |  |  |  |  |  | 
Nc1ccc(C(=O)CC2(O)C(=O)Nc3ccc(S(=O)(=O)N4CCCCC4)cc32)cc1 (centres unmarked) [Compound 3c] | 11.5% | > 100 µM |  |  |  | > 100 µM |  |  |  |  |  |  |  |  | 18.08%
O=C(CC1(O)C(=O)Nc2ccc(S(=O)(=O)N3CCCCC3)cc21)c1ccc(O)cc1 (centres unmarked) [Compound 3d] | 19.5% | > 100 µM |  |  |  | > 100 µM |  |  |  |  |  |  |  |  | 
Cc1ccc(C(=O)/C=C2\C(=O)Nc3ccc(S(=O)(=O)N4CCCCC4)cc32)cc1 [Compound 4a] | 100% | 12 ± 0.4 µM | 21.9 ± 1.15 µM | 0% |  | > 100 µM | 28.14 ± 0.56 ^^ U/L | 36.51 ± 0.15 ^^ U/L | 0.70 ± 0.02 ^^ mg/dL | 0.17 ± 0.004 ^^ mg/dL | 0.72 ± 0.019 ^^ mg/dL | 55.10 ± 2.96 ^^ mg/dL | survived | No physical or abnormal changes were observed | 
O=C1Nc2ccc(S(=O)(=O)N3CCCCC3)cc2/C1=C/C(=O)c1ccc(O)cc1 [Compound 4d] | 100% | 13.3 ± 0.75 µM | 11.9 ± 0.7 µM | 0% |  | 18.8 ± 0.8 µM | 30.14 ± 0.93 ^^ U/L | 38.72 ± 1.37 ^#,^ U/L | 0.85 ± 0.03 ^^ mg/dL | 0.18 ± 0.004 ^^ mg/dL | 0.69 ± 0.016 ^^ mg/dL | 48.18 ± 0.53 ^^ mg/dL | survived | No physical or abnormal changes were observed | 
